How the values were obtained:
[1] = tested on: panel of 31 melanoma cell lines; assay: MTS cell viability assay in a panel of 31 melanoma cell lines; assay type: cell-based; conditions: for % of Less Sensitive cell lines / Less sensitive cell lines (number/total) / Sensitive cell lines (number/total): Cut-Off IC50 < 100 nmol/L; for Number of sensitive cell lines: sensitivity defined as IC50<500 nmol/L
Method: Cell viability was also assessed in a panel of 31 melanoma cell lines carrying different mutations in BRAF following treatment with a zearalenone analog compound, Compound 106. All assays were performed in a 96 well format. Cell viability was assessed after four days following treatment. Cell viability was assessed with a MTS Assay (CellTiter96®AqueousOne Solution Cell Proliferation Assay, Promega) in a panel of cell lines carrying various BRAF mutations to determine the effect of BRAF genotype on drug sensitivity. The mutational status of these cell lines and IC50 in nmol/L is depicted in FIG. 3C.
Cell viability was assessed in a panel of melanoma cell lines carrying different mutations in BRAF, and PTEN following treatment with the MEK inhibitor, Compound 106. The panel of 31 melanoma cell lines was tested with eight concentrations of Compound 106 ranging from 10 μmol/L to 0.0003 μmol/L of Compound 106. (The panel of cell lines also carries mutations in one or more additional genes associated with cancer).
All assays were performed in a 96 well format. Cell viability was assessed after four days following treatment. Cell viability was assessed with a MTS Assay (CellTiter96®AqueousOne Solution Cell Proliferation Assay, Promega) to determine the effect of genotype on drug sensitivity.

[2] = tested on: COLO-829 melanoma xenografts; assay: Plasma human IL-8 (ELISA) in tumor bearing mice; assay type: in vivo; conditions: COLO-829 xenograft; 40 mg/kg i.v. QD×4; 24 hours after the fourth dosing
Source text: (§1) In order to determine whether plasma IL-8 levels could be measurable in tumor xenograft bearing mice and whether plasma IL-8 levels change after treatment with Compound 106, COLO-829 and UACC-62 melanoma xenografts were established as Compound 106 sensitive xenografts in female nude mice. SF-295 human glioblastoma (BRAF wild-type) xenografts were established as an Compound 106 resistant tumor model in female nude mice. Female athymic NU/NU mice were inoculated subcutaneously with COLO-829, UACC-62 human melanoma cancer cells, or SF-295 human glioblastoma cells. Those animals that developed tumors of approximately 250 mm^3 were selected and randomized to two groups. The experiment consisted of a vehicle-treated and 40 mg/kg Compound 106-treated groups of 8 mice per group on the first day of treatment. Compound 106 was administered intravenously (i.v.) on a QD×4 (every day for a total of four injections) dosing schedule. The subcutaneous tumor volumes were measured on the first day of treatment and 24 hours after the fourth treatment. Heparinized blood was collected from these mice 24 hours after the fourth treatment with Compound 106 using a cardiac puncture, and plasma was isolated. The levels of human IL-8 in the plasma were determined by ELISA.

[3] = tested on: SF-295 human glioblastoma xenografts; assay: Plasma human IL-8 (ELISA) in tumor bearing mice; assay type: in vivo; conditions: SF-295 tumor bearing mice; 40 mg/kg i.v. QD×4; 24 hours after the fourth dosing
Source text: as §1

[4] = tested on: UACC-62 melanoma xenografts; assay: Plasma human IL-8 (ELISA) in tumor bearing mice; assay type: in vivo; conditions: UACC-62 xenograft; 40 mg/kg i.v. QD×4; 24 hours after the fourth dosing
Source text: as §1

[5] = tested on: LOX human melanoma xenografts; assay: Subcutaneous LOX melanoma xenograft model; assay type: in vivo, mice
Method: The purpose of this study was to investigate anticancer activity of Compound 106 in a LOX human melanoma xenograft model. LOX human melanoma cells, which carry a BRAF (V600E) mutation, were obtained from the DCTD Tumor Repository (Frederick, Md.). Cells were grown in monolayer cultures in T225 flask with RPMI-1640 growth media at 37° C. in a 5% CO2 humidified incubator. Cells were further cultivated in T225 flasks for the in vivo study. On the day of subcutaneous (s.c.) injections of the cells, growth medium was removed, flasks were washed with PBS, and cells were collected with trypsinization. Cells were washed and centrifuged for 3 minutes, and then resuspended in ice-cold PBS.
Female athymic NU/NU mice were inoculated s.c. with 1×10^6 LOX human melanoma cells. Those animals that developed tumors of approximately 150 mm^3 were selected and randomized to five groups. The study consisted of a vehicle-treated group and four drug-treated groups of 8 mice per group for a total of 40 mice on the first day of treatment. All treatments were initiated on day 6. Compound 106 was administered intravenously (i.v.) on a Q4D×3 (days 6, 10, and 14) dosing schedule at dosages of 5, 10, 20 and 40 mg/kg with a volume of injection of 0.1 mL per 10 g body weight. The control group was treated with vehicle (20% Captisol in water) alone.
The s.c. tumor volumes were measured and animals were weighed twice weekly starting with the first day of treatment. Tumor volume and relative body weight (RBW) were determined as described in Example 12.
The study was terminated fifty-nine days after cancer cell transplantation. For each Compound 106 treatment group, measurements were also terminated when mean tumor volume reached two doublings (4-fold tumor volume) from the first day of treatment.
Animals were treated intravenously on days 6, 10, and 14 (Q4D×3; indicated by arrows in FIG. 11). Tumor measurements on tumor bearing mice in all surviving groups were stopped on day 37. Then, tumor measurements were continued for tumor-free mice in the 10 mg/kg (1/8), 20 mg/kg (5/8), and 40 mg/kg (7/8) Compound 106 treatment groups. The study was terminated on day 59. Asterisks (*) indicate P<0.05 vs. control group.

[6] = mutant BRAF gene (20 cell lines)
[7] = total cell lines (31 cell lines)
[8] = wild-type BRAF gene (11 cell lines)

## CCNc1cc(O)c2c(c1)/C=C/C[C@H](O)[C@H](O)C(=O)/C=C\[C@@H](C)[C@H](C)OC2=O [Compound 106]
[1]; [6]
  % of Less Sensitive cell lines: (25%)
  Less sensitive cell lines (number/total): 5/20
  Sensitive cell lines (number/total): 15/20
[1]; [7]
  % of Less Sensitive cell lines: (42%)
  Less sensitive cell lines (number/total): 13/31
[1]; [8]
  % of Less Sensitive cell lines: (73%)
  Less sensitive cell lines (number/total): 8/11
  Sensitive cell lines (number/total): 3/11
[1]; PTEN gene Mutant (8 cell lines), Total
  % of Cell lines with IC50 < 100 nmol/L: (50%)
[1]; PTEN gene Mutant, BRAF Mutant
  % of Cell lines with IC50 < 100 nmol/L: (50%)
[1]; PTEN gene Mutant, BRAF Wild Type
  % of Cell lines with IC50 < 100 nmol/L: (0%)
[1]; PTEN gene Wild Type (23 cell lines), Total
  % of Cell lines with IC50 < 100 nmol/L: (65%)
[1]; PTEN gene Wild Type, BRAF Mutant
  % of Cell lines with IC50 < 100 nmol/L: (86%)
[1]; PTEN gene Wild Type, BRAF Wild Type
  % of Cell lines with IC50 < 100 nmol/L: (33%)
[1]; p-AKT expression High (G2-G3), BRAF Mutant
  % of Cell lines with IC50 < 100 nmol/L: (67%)
[1]; p-AKT expression High (G2-G3), BRAF Wild Type
  % of Cell lines with IC50 < 100 nmol/L: (0%)
[1]; p-AKT expression High (G2-G3), Total
  % of Cell lines with IC50 < 100 nmol/L: (57%)
[1]; p-AKT expression Low (G0-G1), BRAF Mutant
  % of Cell lines with IC50 < 100 nmol/L: (79%)
[1]; p-AKT expression Low (G0-G1), BRAF Wild Type
  % of Cell lines with IC50 < 100 nmol/L: (30%)
[1]; p-AKT expression Low (G0-G1), Total
  % of Cell lines with IC50 < 100 nmol/L: (58%)
[1]; of the 8 cell lines with mutant PTEN or loss of PTEN
  Number of sensitive cell lines: 3 cell lines
[1]; of the 23 cell lines with wild-type PTEN
  Number of sensitive cell lines: 12 cell lines
[2]
  Plasma IL-8 levels: almost completely blocked
[3]
  Plasma IL-8 levels: did not change
[4]
  Plasma IL-8 levels: almost completely blocked
[5]; 10 mg/kg i.v. Q4D×3
  Tumor-free animals at the end of the study on day 59: 1/8 and one
[5]; 20 mg/kg i.v. Q4D×3
  Tumor-free animals at the end of the study on day 59: 5/8 and five
[5]; 40 mg/kg i.v. Q4D×3
  Tumor-free animals at the end of the study on day 59: 7/8 and seven
[5]; 10, 20, and 40 mg/kg i.v. Q4D×3
  Anticancer activity (tumor volume vs. control group): statistically significant anticancer activity
